Source: paper PMC11582173, “Synthesis, cytotoxicity, anti-inflammatory, anti-metastatic and anti-oxidant activities of novel chalcones incorporating 2-phenoxy-N-arylacetamide and thiophene moieties: induction of apoptosis in MCF7 and HEP2 cells” (Naunyn-Schmiedeberg's Archives of Pharmacology, 2024)
Values joined by “and” are separate entries in the source; they are usually repeats but may differ in a detail not shown here. Equal values may be shown once.

Test system: MMP9
Test: ELISA, MMP9 concentration
Format: cell-based, human
Protocol: The concentrations of matrix metalloproteinase-2 (MMP2), matrix metalloproteinase-9 (MMP9), Bcl2, BAX, P53, Malondialdehyde (MDA), Glutathione (GSH), caspase 8, caspase 9 and IL-6 were measured quantitatively in 5c treated MCF7 and HEP2 cells using ELISA (Enzyme-Linked Immunosorbent Assay) (Table 4). Gelatinases are a collective word for MMP-2 and MMP-9, where MMP-2 is gelatinase-A and MMP-9 is gelatinase-B. Solid tumor invasion, metastasis, and angiogenesis have long been linked to gelatinases (Das et al. [2021]). […] Bcl2 is a crucial protein that targets apoptosis inhibition. It is regarded as a predictive biomarker or therapeutic target in the diagnosis of cancer due to its broad expression in a variety of cancers (Porter et al. [2009]). […] The pro-apoptotic protein BAX permeabilizes the mitochondrial outer membrane by changing from a cytosolic monomer to a hazardous oligomer triggering the apoptosis process (Fulda and Debatin [2006]). […] P53 transcription factor performs an essential tumor suppressor role by coordinating a wide range of physiological responses, including DNA repair, cell cycle arrest, cellular senescence, cell death, cell differentiation, and metabolism (Liebl and Hofmann [2021]). It was activated in MCF7 and HEP2-treated cells with values (4.28 and 3.109 ng/mL), respectively, compared to their controls (3.44 and 2.06 ng/mL). […]

With `COc1ccc(NC(=O)COc2ccc(C=CC(=O)c3cccs3)cc2)cc1` [Compound 5c, N-(4-Methoxyphenyl)-2-(4-(3-oxo-3-(thiophen-2-yl)prop-1-en-1-yl)phenoxy)acetamide] the MMP9 concentration (5c treated HEP2 cells, untreated 564.8±41.45) was 236.5 ng/mL and 236.5 ± 24.87 ng/mL and the MMP9 concentration (5c treated MCF7 cells, untreated 588.28±24.87) was 271.6 ng/mL and 271.6 ± 58.04 ng/mL.
